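Method: 48-hour compound exposure of cells in 96-well plates, five concentrations, linear interpolation of endpoints. GI50 = concentration required for 50% inhibition of growth.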 The source made the active and inactive calls. Rule as the data show it: active = GI50 up to about 1.1 µM and inactive = higher.

Among the test systems are A549; MDA-N; Hs-578T; EKVX; M14; OVCAR-3; HCT-15; NCI-H460; HT-29; PC-3; BT-549; KM12; UACC-62; NCI-H522; SW-620; SF-295; HCT-116; HCC 2998; A498; OVCAR-8.
What all share (test): NCI tumour cell line growth inhibition, 48 h

Take `CCCCCCCCCCCCCCCC[N+](C)(C)Cc1ccc(F)cc1`: the GI50 is 2.67 µM (inactive) with A549; 1.96 µM (inactive) with MDA-N; 1.89 µM (inactive) with Hs-578T; 2 µM (inactive) with EKVX; 1.6 µM (inactive) in the assay with M14; 1.94 µM (inactive) in the assay on OVCAR-3. In addition, the GI50 in the assay on HCT-15 is 8.43 µM; with NCI-H460 it was 1.44 µM (inactive); with HT-29 it was 1.26 µM (inactive); with PC-3, 1.11 µM (active); in the assay with BT-549, 2.37 µM (inactive); with KM12, 1.26 µM (inactive). For the same compound, the GI50 was 1.67 µM (inactive) in the assay on UACC-62; 0.724 µM (active) in the assay on NCI-H522; 1.7 µM (inactive) in the assay on SW-620; 2.37 µM (inactive) with SF-295; 1.48 µM (inactive) in the assay with HCT-116; 1.47 µM (inactive) in the assay on HCC 2998. The results for the GI50 in the assay on A498 and with OVCAR-8 were 26.2 µM (inactive) and 1.51 µM (inactive), respectively.

Consider `CC(C)(C)CNCCO`, for which the GI50 in the assay on A549, with MDA-N, in the assay with Hs-578T, with EKVX, in the assay on M14 and with OVCAR-3 was > 100 µM (inactive) each time. The GI50 in the assay on HCT-15 was more than 100 µM; in the assay with NCI-H460, > 100 µM (inactive); with HT-29, > 100 µM (inactive); in the assay on PC-3, > 100 µM (inactive); in the assay on BT-549, > 100 µM (inactive); in the assay on KM12, > 100 µM (inactive). Moreover, the GI50 in the assay with UACC-62, in the assay on NCI-H522, in the assay on SW-620, in the assay with SF-295, in the assay with HCT-116 and with HCC 2998 was > 100 µM (inactive) in each case. Also, the GI50 in the assay with A498 and in the assay with OVCAR-8 was > 100 µM (inactive) throughout.

Turning to `CN(C1=NS(=O)(=O)N=C(N(C)c2ccccc2)O1)c1ccccc1`, the GI50 with A549 was 21.2 µM (inactive); with MDA-N, 15 µM (inactive); in the assay on Hs-578T it was 27.7 µM (inactive); in the assay on EKVX, 22.2 µM (inactive); in the assay on M14 it was 18.9 µM (inactive); in the assay on OVCAR-3 it was 20.3 µM (inactive). The GI50 in the assay on HCT-15 is 15.1 µM; with NCI-H460, 21.8 µM (inactive); in the assay with HT-29, 22.9 µM (inactive); in the assay on PC-3 it was > 100 µM (inactive); in the assay on BT-549 it was 8.38 µM (inactive); with KM12, 17.8 µM (inactive). In addition, the GI50 in the assay on UACC-62 is 14.2 µM (inactive); in the assay with NCI-H522, 18.5 µM (inactive); in the assay with SW-620 it was 14 µM (inactive); in the assay on SF-295, 21.8 µM (inactive); in the assay on HCT-116 it was 13.7 µM (inactive); with HCC 2998, 20.7 µM (inactive). Besides, the GI50 with A498 was 20.5 µM (inactive); with OVCAR-8, 17.4 µM (inactive).

As to `O=S(=O)(NNc1ccccc1)c1ccccc1`, the GI50 was 8.87 µM (inactive) with A549; 12.2 µM (inactive) with MDA-N; 61 µM (inactive) in the assay with Hs-578T; 14.4 µM (inactive) in the assay with EKVX; 0.671 µM (active) with M14; 11.3 µM (inactive) with OVCAR-3. The GI50 in the assay on HCT-15 is 11.5 µM; in the assay with NCI-H460, 3.96 µM (inactive); with HT-29, 11.5 µM (inactive); in the assay on PC-3, 8.15 µM (inactive); in the assay on BT-549, 19.2 µM (inactive); in the assay on KM12, 1.66 µM (inactive). The GI50 in the assay on UACC-62 is 0.481 µM (active); with NCI-H522, 8.95 µM (inactive); in the assay on SW-620 it was 26.3 µM (inactive); in the assay with SF-295, 0.646 µM (active); with HCT-116, 13.2 µM (inactive); in the assay with HCC 2998, 0.902 µM (active). Besides, the GI50 with A498 was 81.5 µM (inactive); with OVCAR-8, 28.5 µM (inactive).

As for `O=C(/C=C\c1ccc([N+](=O)[O-])cc1)c1ccccc(=O)c1O`, the GI50 is 0.51 µM (active) with A549; 2.37 µM (inactive) in the assay on MDA-N; 3.88 µM (inactive) with Hs-578T; 1.81 µM (inactive) in the assay on EKVX; 1.29 µM (inactive) with M14; 2.49 µM (inactive) in the assay with OVCAR-3. The GI50 in the assay with HCT-15 is 0.169 µM; in the assay with NCI-H460, 0.518 µM (active); with HT-29 it was 1.04 µM (active); with PC-3, 1.95 µM (inactive); in the assay with BT-549, 1.72 µM (inactive); with KM12, 1.04 µM (active). In addition, the GI50 in the assay on UACC-62 is 1.14 µM (inactive); in the assay with NCI-H522, 1.39 µM (inactive); in the assay on SW-620 it was 1.3 µM (inactive); in the assay with SF-295, 1.42 µM (inactive); in the assay on HCT-116, 0.659 µM (active); in the assay with HCC 2998 it was 1.29 µM (inactive). Besides, the GI50 was 2.84 µM (inactive) in the assay with A498 and 0.9 µM (active) with OVCAR-8.

Turning to `C=C(Cl)COC(=O)Nc1cccc(Cl)c1`, the GI50 is 30.3 µM (inactive) in the assay on A549; 34.2 µM (inactive) in the assay on MDA-N; 34 µM (inactive) in the assay on Hs-578T; 22.5 µM (inactive) in the assay on EKVX; 35.4 µM (inactive) in the assay on M14; 28.1 µM (inactive) in the assay with OVCAR-3. Moreover, the GI50 in the assay with HCT-15 was 28.6 µM; in the assay with NCI-H460, 32.6 µM (inactive); in the assay on HT-29 it was 33.3 µM (inactive); in the assay with PC-3 it was 29 µM (inactive); with BT-549, 26.7 µM (inactive); with KM12, 31.6 µM (inactive). In addition, the GI50 was 20.6 µM (inactive) in the assay on UACC-62; 25.1 µM (inactive) in the assay with NCI-H522; 39.3 µM (inactive) with SW-620; 25.7 µM (inactive) with SF-295; 27 µM (inactive) in the assay on HCT-116; 37.1 µM (inactive) in the assay on HCC 2998. For the same compound, the GI50 was 23.4 µM (inactive) with A498 and 32.6 µM (inactive) with OVCAR-8.

For `CCNc1nc2ccccc2nc1NCC`, the GI50 in the assay with A549, in the assay with MDA-N, in the assay on Hs-578T, in the assay with EKVX, in the assay on M14 and in the assay on OVCAR-3 was > 100 µM (inactive) in each case. In addition, the GI50 with HCT-15 was more than 100 µM; in the assay on NCI-H460, > 100 µM (inactive); in the assay with HT-29 it was > 100 µM (inactive); in the assay on PC-3, > 100 µM (inactive); in the assay with BT-549, > 100 µM (inactive); with KM12, > 100 µM (inactive). For the same compound, the GI50 in the assay with UACC-62, with NCI-H522, in the assay on SW-620, in the assay on SF-295, in the assay with HCT-116 and with HCC 2998 was > 100 µM (inactive) throughout. The GI50 in the assay with A498 and in the assay with OVCAR-8 was > 100 µM (inactive) throughout.

In the case of `COC1=CC2(C=CC1=O)CCNC1=C2C(=O)c2nc[nH]c2C1=O` (stereo not given), the GI50 in the assay on A549 is > 100 µM (inactive); with MDA-N it was > 100 µM (inactive); in the assay on Hs-578T it was > 100 µM (inactive); with EKVX it was > 100 µM (inactive); with M14, > 100 µM (inactive); in the assay with OVCAR-3, 41.8 µM (inactive). Besides, the GI50 is more than 100 µM in the assay on HCT-15; > 100 µM (inactive) with NCI-H460; > 100 µM (inactive) in the assay on HT-29; > 100 µM (inactive) with PC-3; > 100 µM (inactive) in the assay on BT-549; > 100 µM (inactive) with KM12. Further, the GI50 was > 100 µM (inactive) with UACC-62; 32.3 µM (inactive) with NCI-H522; > 100 µM (inactive) in the assay with SW-620; > 100 µM (inactive) with SF-295; > 100 µM (inactive) with HCT-116; > 100 µM (inactive) in the assay on HCC 2998. The GI50 in the assay with A498 and in the assay on OVCAR-8 was > 100 µM (inactive) throughout.

Regarding `COC(=O)C1Cc2ccc(C)cc2C1=O` (stereo not given), the GI50 with A549, with MDA-N, in the assay with Hs-578T, in the assay on EKVX, in the assay with M14 and in the assay on OVCAR-3 was > 100 µM (inactive) each time. Moreover, the GI50 in the assay with HCT-15 was more than 100 µM; in the assay with NCI-H460, > 100 µM (inactive); with HT-29, > 100 µM (inactive); in the assay on PC-3, > 100 µM (inactive); with BT-549, > 100 µM (inactive); in the assay with KM12 it was 83.4 µM (inactive). Moreover, the GI50 in the assay on UACC-62, with NCI-H522, in the assay with SW-620, with SF-295, with HCT-116 and with HCC 2998 was > 100 µM (inactive) throughout. In addition, the GI50 with A498 and in the assay with OVCAR-8 was > 100 µM (inactive) throughout.

For `CC1(C)[C@@H]2C[C@H]1c1cnc(-c3ccccn3)cc1C2[C@@H]1c2cc(-c3ccccn3)ncc2[C@@H]2C[C@H]1C2(C)C` (stereo not given in full), the GI50 was 30.3 µM (inactive) in the assay with A549; > 100 µM (inactive) in the assay on MDA-N; > 100 µM (inactive) in the assay on Hs-578T; > 100 µM (inactive) in the assay on EKVX; 38 µM (inactive) in the assay on M14; 43.6 µM (inactive) in the assay on OVCAR-3. Besides, the GI50 in the assay on HCT-15 is 24.5 µM; with NCI-H460, 2.77 µM (inactive); in the assay with HT-29 it was 45.3 µM (inactive); in the assay on PC-3, 73.6 µM (inactive); with BT-549, > 100 µM (inactive); with KM12, 33.3 µM (inactive). The GI50 in the assay with UACC-62 is 45 µM (inactive); with NCI-H522 it was 25.3 µM (inactive); in the assay on SW-620, 84.3 µM (inactive); in the assay on SF-295, 34.5 µM (inactive); with HCT-116, 49 µM (inactive); with HCC 2998 it was 45.7 µM (inactive). The GI50 with A498 is 39.9 µM (inactive); in the assay on OVCAR-8 it was 46.8 µM (inactive).
